Results from the Bradley open melting point set (2014).
“And” between values parts separate entries of the source, which are not always exact repeats. Equal entries are not always repeated. Structures can show the parent of a compound that is named as a salt.

melting point	SMILES
270 °C and 275 °C	O=C1CCC(N2C(=O)c3ccccc3C2=O)C(=O)N1 (centres undefined) [thalidomide]
357 °C	Cn1cnc2c1c(=O)[nH]c(=O)n2C [theobromine]
272 °C and 274 °C	Cn1c(=O)c2[nH]cnc2n(C)c1=O [theophylline]
-33 °C	c1cscn1 [thiazole]
116 °C	NC(=S)c1ccccc1 [thiobenzamide]
167 °C	OB(O)c1ccsc1 [thiophene-3-boronic acid]
317 °C	Cc1c[nH]c(=O)[nH]c1=O [thymine]
129 °C	CCCCNC(=O)NS(=O)(=O)c1ccc(C)cc1 [tolbutamide]
218 °C	O=C(O)/C=C/c1ccccc1Br [trans-2-bromocinnamic acid]
-133 °C	C/C=C/CCC [trans-2-hexene]
247 °C	O=C(O)/C=C/c1ccccc1[N+](=O)[O-] [trans-2-nitrocinnamic acid]
-140 °C	C/C=C/CC [trans-2-pentene]
58 °C	COc1ccc(/C=C/C=O)cc1 [trans-4-methoxycinnamaldehyde]
125 °C	C(=C\c1ccccc1)/c1ccccc1 [trans-Stilbene]
125 °C and 124 °C	C(=C\c1ccccc1)/c1ccccc1 [trans-stilbene]
-39 °C	CCCCCCCCN(CCCCCCCC)CCCCCCCC [tri-n-octylamine]
-55 °C	CCOC(=O)CC(O)(CC(=O)OCC)C(=O)OCC [triethyl citrate]
-157 °C	CC[SiH](CC)CC [triethylsilane]
-15 °C	O=C(O)C(F)(F)F [trifluoroacetic acid]
-40 °C	O=S(=O)(O)C(F)(F)F [trifluoromethanesulfonic acid]

melting point	SMILES
201 °C	COc1cc(Cc2cnc(N)nc2N)cc(OC)c1OC [trimethoprim]
-34 °C	COB(OC)OC [trimethyl borate]
6 °C	CC(C)(C)C=O [trimethylacetaldehyde]
106 °C	SC(c1ccccc1)(c1ccccc1)c1ccccc1 [triphenylmethyl mercaptan]
146 °C	COc1cccc(OC)c1P(c1c(OC)cccc1OC)c1c(OC)cccc1OC [tris(2,6-dimethoxyphenyl)phosphine]
200 °C	COc1ccccc1P(c1ccccc1OC)c1ccccc1OC [tris(2-methoxyphenyl)phosphine]
114 °C	COc1cccc(P(c2cccc(OC)c2)c2cccc(OC)c2)c1 [tris(3-methoxyphenyl)phosphine]
74 °C	FC(F)(F)c1ccc(P(c2ccc(C(F)(F)F)cc2)c2ccc(C(F)(F)F)cc2)cc1 [tris[4-(trifluoromethyl)phenyl]phosphine]
102 °C	NC(c1ccccc1)(c1ccccc1)c1ccccc1 [tritylamine]
28.6 °C	CCCCCCCCCCC(=O)O [undecanoic acid]
203 °C	C[C@H](CCC(=O)O)[C@H]1CC[C@H]2[C@@H]3[C@@H](O)C[C@@H]4C[C@H](O)CC[C@]4(C)[C@H]3CC[C@]12C [ursodeoxycholic acid]
203 °C	CC(CCC(=O)O)C1CCC2C3C(O)CC4CC(O)CCC4(C)C3CCC12C (centres undefined) [ursodiol]
116 °C	CCCCC(=O)N(Cc1ccc(-c2ccccc2-c2nnn[nH]2)cc1)C(C(=O)O)C(C)C (centres undefined) [valsartan]
214 °C	COc1cc(C(=O)O)ccc1O [vanillic acid]
245 °C	Nc1c2c(nc3ccccc13)CCCC2O (centres undefined) [velnacrine]
-28 °C	CC(=O)Oc1c(C)c(C)c2c(c1C)CC[C@@](C)(CCC[C@H](C)CCC[C@H](C)CCCC(C)C)O2 [vitamin e acetate]
245 °C	NC(=O)C1c2ccccc2Oc2ccccc21 [xanthene-9-carboxamide]
176 °C	O=c1c2ccccc2oc2ccccc12 [xanthone]
124 °C	OC1c2ccccc2Oc2ccccc21 [xanthydrol]
57 °C	Cc1cccc(OCC(O)CNC(C)(C)C)c1C (centres undefined) [xibenolol]

SMILES	melting point
O=S(Br)Br [thionyl bromide]	-52 °C
CN(C)C1=NC(=O)C(c2ccccc2)O1 (centres undefined) [thozalinone]	133 °C
CC(=O)/C=C/c1ccccc1 [trans-4-phenyl-3-buten-2-one]	41 °C
ClC1=C(Cl)C2(Cl)C3C(Cl)C(Cl)CC3C1(Cl)C2(Cl)Cl (stereo not drawn) [trans-Chlordane]	106 °C
ClC1=C(Cl)C2(Cl)C3C(Cl)C(Cl)CC3C1(Cl)C2(Cl)Cl (stereo not drawn) [trans-gamma-chlordane]	106 °C
CCCCP(CCCC)CCCC [tri-n-butylphosphine]	-65 °C
CC(=O)O[Si](C)(OC(C)=O)OC(C)=O [triacetoxy(methyl)silane]	43 °C
OCCN(CCO)CCO [triethanolamine]	20 °C
CC(C)(C)C(=O)Cl [trimethylacetyl chloride]	-57 °C
C[Si](C)(C)N=C=S [trimethylsilyl isothiocyanate]	-33 °C
CCCCC#N [valeronitrile]	-96 °C
COc1ccc(C=O)cc1OC [veratraldehyde]	44 °C
COc1ccccc1OC [veratrole]	22 °C
C=CC1(C(C)CCC)C(=O)NC(=O)NC1=O (centres undefined) [vinylbital]	90 °C
